From patent publication US4877795A, “4H-quinolizin-4-one compounds useful for the treatment of allergic bronchial asthma, allergic rhinitis atropic dermatitis and the like” (Kissei Pharmaceutical Co., Ltd., priority 1987, dated 1989)

Legend:
[1] = tested on: IgG; test: Determination of Igs produced in in vitro culture: inhibition of IgG secreted by spleen cells (adoptive secondary immune response to DNP-As), ELISA; type: cell-based, BALB/c mice; conditions: 4 days culture; for inhibition at 1 µg/mL / inhibition at 20 µg/mL / inhibition at 2.5 µg/mL / inhibition at 5 µg/mL: Mus musculus, 96 h; for inhibition at 20 µg/mL: 20.0 μg/ml; for inhibition at 2.5 µg/mL: 2.5 μg/ml; for inhibition at 5 µg/mL: 5.0 μg/ml
Method: (§1) Determination of Igs produced in in vitro culture
(§2) BALB/c mice were immunized intraperitoneally with 5 μg of DNP-As adsorbed in 4 mg aluminum hydroxide gel. 4 weeks after the immunization, the spleens were excised from the mice and 5×10^7 spleen cells were transferred intravenously into the recipient mice which had been exposed to 600 rad of X-ray irradiation. Immediately after cell transfer, the recipients were then immunized intraperitoneally with 5 μg of DNP-As adsorbed in 4 mg aluminum hydroxide gel to induce adoptive secondary immune response. Further 4 weeks after the immunization of recipients, the spleens were excised from them and the spleen cell suspensions 5×10^6 cells/ml were cultured with or without a compound to be tested in 96-well micro plates at 37° C. for 4 days. IgE and IgG secreted into the culture supernatant was each determined correspondingly by ELISA and the inhibitory effect was calculated according to the following equation. [formula]

[2] = tested on: IgE; test: Determination of Igs produced in in vitro culture: inhibition of IgE secreted by spleen cells (adoptive secondary immune response to DNP-As), ELISA; type: cell-based, BALB/c mice; conditions: 4 days culture; for inhibition at 1 µg/mL / inhibition at 20 µg/mL / inhibition at 2.5 µg/mL / inhibition at 5 µg/mL: Mus musculus, 96 h; for inhibition at 20 µg/mL: 20.0 μg/ml; for inhibition at 2.5 µg/mL: 2.5 μg/ml; for inhibition at 5 µg/mL: 5.0 μg/ml
Method: as §1, §2

`CSc1c(C#N)c(=O)n2ccccc2c1C(=O)OCC(Cl)(Cl)Cl` [S-4, 2',2',2'-Trichloroethyl 3-cyano-2-methylthio-4H-quinolizin-4-one-1-carboxylate] gave an inhibition at 1 µg/mL ([1]; 1.0 μg/ml) of 39% and an inhibition at 1 µg/mL ([2]; 1.0 μg/ml) of 68%.

`CSc1c(C#N)c(=O)n2ccccc2c1C(=O)Cc1ccccc1` [S-95, 3-Cyano-2-methylthio-1-phenylacetyl-4H-quinolizin-4-one] gave an inhibition at 20 µg/mL [1] of 47% and an inhibition at 20 µg/mL [2] of 70%.

Molecule `CSc1c(C#N)c(=O)n2ccccc2c1C(=O)OCc1ccccc1` [S-29, Benzyl 3-cyano-2-methylthio-4H-quinolizin-4-one-1-carboxylate] has an inhibition at 1 µg/mL ([1]; 1.0 μg/ml) of 31% and an inhibition at 1 µg/mL ([2]; 1.0 μg/ml) of 69%.

With `CCCCOC(=O)c1c(SC)c(C#N)c(=O)n2ccccc12` [S-9, Butyl 3-cyano-2-methylthio-4H-quinolizin-4-one-1-carboxylate] the inhibition at 2.5 µg/mL [1] was 17% and the inhibition at 2.5 µg/mL [2] was 54%.

`CSc1c(C#N)c(=O)n2ccccc2c1C(=O)OC1CCCCC1` [S-14, Cyclohexyl 3-cyano-2-methylthio-4H-quinolizin-4-one-1-carboxylate] showed an inhibition at 1 µg/mL ([1]; 1.0 μg/ml) of 39% and an inhibition at 1 µg/mL ([2]; 1.0 μg/ml) of 69%.

In the case of `CSc1c(C#N)c(=O)n2ccccc2c1C(=O)CCCCc1ccccc1` [S-107, 3-Cyano-2-methylthio-1-(5-phenylvaleryl)-4H-quinolizin-4-one], the inhibition at 1 µg/mL ([1]; 1.0 μg/ml) is reported as 43% and the inhibition at 1 µg/mL ([2]; 1.0 μg/ml) is reported as 80%.

With `CSc1c(C#N)c(=O)n2ccccc2c1C(=O)N1CCC(OC(C)=O)(c2ccccc2)CC1` [S-80, 1-(4-Acetoxy-4-phenylpiperidinocarbonyl)-3-cyano-methylthio-4H-quinolizin-4-one] the inhibition at 2.5 µg/mL [1] was 34% and the inhibition at 2.5 µg/mL [2] was 66%.

Work on `CSc1c(C#N)c(=O)n2ccccc2c1C(=O)OC1CCCCCC1` [S-19, Cycloheptyl 3-cyano-2-methylthio-4H-quinolizin-4-one-1-carboxylate] yielded an inhibition at 5 µg/mL [1] of 27% and an inhibition at 5 µg/mL [2] of 71%.

`CSc1c(C#N)c(=O)n2ccccc2c1C(=O)N1CCN(c2ccccc2)CC1` [S-91, 3-Cyano-2-methylthio-1-(4-phenyl-1-piperadinylcarbonyl)-4H-quinolizin-4-one] showed an inhibition at 2.5 µg/mL [1] of 11% and an inhibition at 2.5 µg/mL [2] of 39%.

For `CCOc1ccc(COC(=O)c2c(SC)c(C#N)c(=O)n3ccccc23)cc1` [S-33, 4'-Ethoxybenzyl 3-cyano-2-methylthio-4H-quinolizin-4-one-1-carboxylate], the inhibition at 20 µg/mL [1] was 47% and the inhibition at 20 µg/mL [2] was 81%.

`CSc1c(C#N)c(=O)n2ccccc2c1C(=O)OCCc1ccccc1` [S-48, 2'-Phenylethyl 3-cyano-2-methylthio-4H-quinolizin-4-one-1-carboxylate] showed an inhibition at 1 µg/mL ([1]; 1.0 μg/ml) of 15% and an inhibition at 1 µg/mL ([2]; 1.0 μg/ml) of 57%.

With `CSc1c(C#N)c(=O)n2ccccc2c1C(=O)OCC1CC1` [S-2, Cyclopropylmethyl 3-cyano-2-methylthio-4H-quinolizin-4-one-1-carboxylate] the inhibition at 5 µg/mL [1] was 27% and the inhibition at 5 µg/mL [2] was 51%.

For `CSc1c(C#N)c(=O)n2ccccc2c1C(=O)CCCc1cccs1` [S-106, 3-Cyano-2-methylthio-1-(4-thienylbutyryl)-4H-quinolizin-4-one], the “Inhibition % of IgG” value ([1]; 1.0 μg/ml) was 26% and the “Inhibition % of IgE” value ([2]; 1.0 μg/ml) was 61%.

Molecule `N#Cc1c(SCc2ccccc2)c(C(=O)N2CCC(Cc3ccccc3)CC2)c2ccccn2c1=O` (single isomer, unassigned) [S-84A, 1-(4-Benzylpiperidinocarbonyl)-2-benzylthio-3-cyano-4H-quinolizin-4-one] has an inhibition at 1 µg/mL ([1]; 1.0 μg/ml) of 22% and an inhibition at 1 µg/mL ([2]; 1.0 μg/ml) of 58%.

`CSc1c(C#N)c(=O)n2ccccc2c1C(=O)OCCCc1ccccc1` [S-45, 3'-Phenylpropyl 3-cyano-2-methylthio-4H-quinolizin-4-one-1-carboxylate] showed an inhibition at 5 µg/mL [1] of 16% and an inhibition at 5 µg/mL [2] of 71%.

With `CSc1c(C#N)c(=O)n2ccccc2c1C(=O)OC(C)C` [S-8, Isopropyl 3-cyano-2-methylthio-4H-quinolizin-4-one-1-carboxylate] the inhibition at 2.5 µg/mL [1] was 18% and the inhibition at 2.5 µg/mL [2] was 36%.
